Measured values: ChEMBL document CHEMBL3745645, “Synthesis, in vitro antitumor activity, dihydrofolate reductase inhibition, DNA intercalation and structure-activity relationship studies of 1,3,5-triazine analogues” (Bioorg Med Chem Lett, 2016)
Calls of active or inactive are those of the source. The calls are words filed in the database; no cut-off is given here.

Legend:
SN12C = test: Cytotoxicity against human SN12C cells at 10 uM after 48 hrs by SRB assay; assay type: functional; settings: read-out: GI
[1] = Cytotoxicity against human UO31 cells at 10 uM after 48 hrs by SRB assay; assay type: functional; settings: UO-31, 48 h, read-out: GI
[2] = Cytotoxicity against human DU145 cells at 10 uM after 48 hrs by SRB assay; assay type: functional; settings: DU-145, 48 h, read-out: GI
MCF7 [3] = test: Cytotoxicity against human MCF7 cells at 10 uM after 48 hrs by SRB assay; assay type: functional; settings: MCF7, 48 h, read-out: GI
[4] = Cytotoxicity against human Hs 578T cells at 10 uM after 48 hrs by SRB assay; assay type: functional; settings: read-out: GI
T47D = test: Cytotoxicity against human T47D cells at 10 uM after 48 hrs by SRB assay; assay type: functional; settings: read-out: GI
[5] = Cytotoxicity against human HL-60(TB) cells after 48 hrs by SRB assay; assay type: functional; settings: HL-60, 48 h, read-out: LC50 (the source's name)
K562 = test: Cytotoxicity against human K562 cells after 48 hrs by SRB assay; assay type: functional; settings: K562, 48 h
[6] = Cytotoxicity against human MOLT4 cells after 48 hrs by SRB assay; assay type: functional; settings: MOLT-4, 48 h, read-out: LC50 (the source's name)
[7] = Cytotoxicity against human RPMI8226 cells after 48 hrs by SRB assay; assay type: functional; settings: RPMI-8226, 48 h, read-out: LC50 (the source's name)
SR [8] = test: Cytotoxicity against human SR cells after 48 hrs by SRB assay; assay type: functional
A549 [9] = test: Cytotoxicity against human A549 cells after 48 hrs by SRB assay; assay type: functional; settings: A549, 48 h, pooled result: one value given for 8 cell lines, strains, targets or settings
[10] = Cytotoxicity against human SF268 cells after 48 hrs by SRB assay; assay type: functional; settings: SF-268, 48 h, pooled result: one value given for 6 cell lines, strains, targets or settings
786-0 [11] = test: Cytotoxicity against human 786-0 cells after 48 hrs by SRB assay; assay type: functional; settings: 786-0, 48 h, pooled result: one value given for 8 cell lines, strains, targets or settings
[12] = Cytotoxicity against human DU145 cells after 48 hrs by SRB assay; assay type: functional; settings: DU-145, 48 h, read-out: LC50 (the source's name)
MCF7 [13] = test: Cytotoxicity against human MCF7 cells after 48 hrs by SRB assay; assay type: functional; settings: MCF7, 48 h, pooled result: one value given for 6 cell lines, strains, targets or settings
Dihydrofolate reductase = target: T1, Dihydrofolate reductase (Homo sapiens, UniProt P00374); test: Inhibition of human recombinant DHFR expressed in Escherichia coli by spectrophotometric analysis
T1 sequence (P00374 whole entry): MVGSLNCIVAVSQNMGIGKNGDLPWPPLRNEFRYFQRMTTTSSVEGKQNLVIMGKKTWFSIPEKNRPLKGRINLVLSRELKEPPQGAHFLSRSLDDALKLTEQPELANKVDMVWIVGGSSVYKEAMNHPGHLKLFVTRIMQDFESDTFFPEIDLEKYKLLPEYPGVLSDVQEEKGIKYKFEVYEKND

Calf thymus DNA [14] = test: Binding affinity to calf thymus DNA by UV-vis spectrometric analysis; assay type: nucleic-acid assay; settings: Bos taurus
Calf thymus DNA [15] = test: Binding affinity to calf thymus DNA by fluorescence spectrophotometric analysis; assay type: nucleic-acid assay; settings: Bos taurus
Calf thymus DNA [16] = test: Binding affinity to calf thymus DNA assessed as melting temperature by spectrophotometric analysis (reference value: 60 degC); assay type: nucleic-acid assay; settings: Bos taurus
CCRF-CEM = test: Cytotoxicity against human CCRF-CEM cells at 10 uM after 48 hrs by SRB assay; assay type: functional; settings: read-out: GI
[17] = Cytotoxicity against human MOLT4 cells at 10 uM after 48 hrs by SRB assay; assay type: functional; settings: MOLT-4, 48 h, read-out: GI
SR [18] = test: Cytotoxicity against human SR cells at 10 uM after 48 hrs by SRB assay; assay type: functional; settings: read-out: GI
A549 [19] = test: Cytotoxicity against human A549 cells at 10 uM after 48 hrs by SRB assay; assay type: functional; settings: A549, 48 h, read-out: GI
[20] = Cytotoxicity against human HOP62 cells at 10 uM after 48 hrs by SRB assay; assay type: functional; settings: HOP-62, 48 h, read-out: GI
[21] = Cytotoxicity against human HOP92 cells at 10 uM after 48 hrs by SRB assay; assay type: functional; settings: HOP-92, 48 h, read-out: GI
NCI-H322M = test: Cytotoxicity against human NCI-H322M cells at 10 uM after 48 hrs by SRB assay; assay type: functional; settings: read-out: GI
NCI-H522 = test: Cytotoxicity against human NCI-H522 cells at 10 uM after 48 hrs by SRB assay; assay type: functional; settings: NCI-H522, 48 h, read-out: GI
[22] = Cytotoxicity against human HCT116 cells at 10 uM after 48 hrs by SRB assay; assay type: functional; settings: HCT-116, 48 h, read-out: GI
KM12 = test: Cytotoxicity against human KM12 cells at 10 uM after 48 hrs by SRB assay; assay type: functional; settings: KM12, 48 h, read-out: GI
[23] = Cytotoxicity against human SF268 cells at 10 uM after 48 hrs by SRB assay; assay type: functional; settings: SF-268, 48 h, read-out: GI
[24] = Cytotoxicity against human SF539 cells at 10 uM after 48 hrs by SRB assay; assay type: functional; settings: SF-539, 48 h, read-out: GI
[25] = Cytotoxicity against human SNB19 cells at 10 uM after 48 hrs by SRB assay; assay type: functional; settings: SNB-19, 48 h, read-out: GI
U-251 = test: Cytotoxicity against human U251 cells at 10 uM after 48 hrs by SRB assay; assay type: functional; settings: U-251, 48 h, read-out: GI
Malme-3M = test: Cytotoxicity against human MALME-3M cells at 10 uM after 48 hrs by SRB assay; assay type: functional
M14 = test: Cytotoxicity against human M14 cells at 10 uM after 48 hrs by SRB assay; assay type: functional
SK-MEL-5 = test: Cytotoxicity against human SK-MEL-5 cells at 10 uM after 48 hrs by SRB assay; assay type: functional; settings: SK-MEL-5, 48 h, read-out: GI
[26] = Cytotoxicity against human OVCAR5 cells at 10 uM after 48 hrs by SRB assay; assay type: functional; settings: OVCAR-5, 48 h, read-out: GI
[27] = Cytotoxicity against human SKOV3 cells at 10 uM after 48 hrs by SRB assay; assay type: functional; settings: SK-OV-3, 48 h, read-out: GI
786-0 [28] = test: Cytotoxicity against human 786-0 cells at 10 uM after 48 hrs by SRB assay; assay type: functional; settings: 786-0, 48 h, read-out: GI
A498 = test: Cytotoxicity against human A498 cells at 10 uM after 48 hrs by SRB assay; assay type: functional
ACHN = test: Cytotoxicity against human ACHN cells at 10 uM after 48 hrs by SRB assay; assay type: functional; settings: read-out: GI

Question: For `Cc1nc2ccc(Nc3nc(NCCN4CCOCC4)nc(Nc4ccc(F)cc4)n3)cc2n1Cc1ccccc1`, which inhibition of growth at 10 µM (SN12C) is on record?
Answer: 38.1%

Question: What about the inhibition of growth at 10 µM [1] of the same molecule?
Answer: 62.7%

Question: What about the inhibition of growth at 10 µM [2] of the same molecule?
Answer: 40.8%

Question: And the inhibition of growth at 10 µM (MCF7 [3])?
Answer: 66.4%

Question: And the inhibition of growth at 10 µM [4]?
Answer: 59.4%

Question: And the inhibition of growth at 10 µM (T47D)?
Answer: 47%

Question: What about the CC50 [5] of the same molecule?
Answer: 55 µM

Question: And the LC50 (K562)?
Answer: 55 µM

Question: And the CC50 [6]?
Answer: 55 µM

Question: And the CC50 [7]?
Answer: 55 µM

Question: What about the LC50 (concentration killing 50% of cells) (SR [8]) of the same molecule?
Answer: 55 µM

Question: And the GI50 (A549 [9])?
Answer: 3.21 µM

Question: And the LC50 (A549 [9])?
Answer: 38.5 µM

Question: And the TGI (A549 [9])?
Answer: 18.5 µM

Question: What about the GI50 [10] of the same molecule?
Answer: 2.72 µM

Question: And the LC50 (concentration killing 50% of cells) [10]?
Answer: 15.3 µM

Question: What about the TGI [10] of the same molecule?
Answer: 12 µM

Question: And the GI50 (786-0 [11])?
Answer: 3.03 µM

Question: And the LC50 (concentration killing 50% of cells) (786-0 [11])?
Answer: 14.6 µM

Question: And the TGI (786-0 [11])?
Answer: 19.3 µM

Question: And the CC50 [12]?
Answer: 62.5 µM

Question: What about the GI50 (MCF7 [13]) of the same molecule?
Answer: 2.04 µM

Question: And the LC50 (concentration killing 50% of cells) (MCF7 [13])?
Answer: 20.6 µM

Question: What about the TGI (MCF7 [13]) of the same molecule?
Answer: 8.99 µM

Question: What about the IC50 (Dihydrofolate reductase) of the same molecule?
Answer: 0.002 µM

Question: What about the Ka (Calf thymus DNA [14]) of the same molecule?
Answer: 7.19 ×10⁴ /M

Question: What about the Ka (Calf thymus DNA [15]) of the same molecule?
Answer: 8.58 ×10⁴ /M

Question: What about the Tm (Calf thymus DNA [16]) of the same molecule?
Answer: 80.1 °C

Question: And the inhibition of growth at 10 µM (CCRF-CEM)?
Answer: 70.5%

Question: What about the inhibition of growth at 10 µM [17] of the same molecule?
Answer: 77.3%

Question: What about the inhibition of growth at 10 µM (SR [18]) of the same molecule?
Answer: 99.8%

Question: And the inhibition of growth at 10 µM (A549 [19])?
Answer: 53.7%

Question: What about the inhibition of growth at 10 µM [20] of the same molecule?
Answer: 52.2%

Question: What about the inhibition of growth at 10 µM [21] of the same molecule?
Answer: 69.7%

Question: And the inhibition of growth at 10 µM (NCI-H322M)?
Answer: 35.9%

Question: And the inhibition of growth at 10 µM (NCI-H522)?
Answer: 41.3%

Question: What about the inhibition of growth at 10 µM [22] of the same molecule?
Answer: 72.1%

Question: And the inhibition of growth at 10 µM (KM12)?
Answer: 56.6%

Question: What about the inhibition of growth at 10 µM [23] of the same molecule?
Answer: 37.2%

Question: And the inhibition of growth at 10 µM [24]?
Answer: 70.2%

Question: And the inhibition of growth at 10 µM [25]?
Answer: 21.3%

Question: What about the inhibition of growth at 10 µM (U-251) of the same molecule?
Answer: 71.3%

Question: What about the “growth inhibition (GI)” value (Malme-3M) of the same molecule?
Answer: Active

Question: What about the “growth inhibition (GI)” value (M14) of the same molecule?
Answer: Active

Question: What about the inhibition of growth at 10 µM (SK-MEL-5) of the same molecule?
Answer: 85.8%

Question: And the inhibition of growth at 10 µM [26]?
Answer: 15.9%

Question: What about the inhibition of growth at 10 µM [27] of the same molecule?
Answer: 21%

Question: And the inhibition of growth at 10 µM (786-0 [28])?
Answer: 95.8%

Question: What about the “growth inhibition (GI)” value (A498) of the same molecule?
Answer: Active

Question: What about the inhibition of growth at 10 µM (ACHN) of the same molecule?
Answer: 47.8%
